Experimental data reported in patent US9593122B2, “Substituted pyrazolylpyrazole derivative and use of same as herbicide” (KYOYU AGRI CO., LTD., priority 2013, dated 2017).

Columns and labels:
Rice plants = test: Paddy herbicidal activity test, phytotoxicity to transplanted rice; assay type: in vivo; details: rice transplanted at 2.0 leaf stage, 30 days
Procedure: Rice paddy soil was filled into a 1/10000 are pot followed by the addition of suitable amounts of water and chemical fertilizer, kneading, seeding with Echinochloa crus-galli, Monochoria vaginalis and Scirpus juncoides and maintaining in an irrigated state at a water depth of 3 cm.
Wettable powder of Target Compound (I) shown in Table 1 prepared in compliance with the preparation examples were diluted with a suitable amount of water, rice plants in the 2.0 leaf stage were transplanted during 3.5 leaf stage of Echinochloa crus-galli, and treated by dropping in chemical in the prescribed amount per are using a pipette.
(§1) After treating for 30 days in a glass greenhouse at an average atmospheric temperature of 30° C., the herbicidal efficacy thereof was investigated.
Evaluation of herbicidal efficacy was carried out by comparing growth inhibition rate (%) with an untreated group, while evaluation of phytotoxicity was carried out by comparing growth inhibition rate (%) with the state of a complete eradication group, and were evaluated at 11 levels indicated below.

Scirpus juncoides = test: Paddy herbicidal activity test; assay type: in vivo; details: irrigated paddy pot, 30 days
How it was run: (§2)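 Flooded paddy-soil pots (3 cm water) were sown with Echinochloa, Monochoria and Scirpus, and rice at the 2.0-leaf stage was transplanted. Diluted wettable powder was dripped in per are at weed 3.5-leaf stage. After 30 days in a greenhouse (~30 °C), growth inhibition versus untreated plants was scored on an 11-level scale.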

Monochoria vaginalis = test: Paddy herbicidal activity test; assay type: in vivo; details: irrigated paddy pot, 30 days
How it was run: as §2

Echinochloa crus-galli = test: Paddy herbicidal activity test; assay type: in vivo; details: irrigated paddy pot, treated at 3.5 leaf stage of Echinochloa crus-galli, 30 days
How it was run: as §2

Amaranthus retroflexus [1] = test: Farming soil treatment test; assay type: in vivo; details: soil surface spray prior to weed growth, 30 days
Procedure: (§3) Field soil was filled into a 1/6000 are pot followed by seeding with Digitaria ciliaris, Chenopodium album and Amaranthus retroflexus and covering with soil.
(§4) Wettable powder of compounds of formula (I) shown in Table 1 prepared in compliance with the preparation examples were diluted with water to the prescribed amount of chemical and uniformly sprayed onto each soil surface layer using 10 liters of sprayed water per are prior to weed growth following seeding.
as §1
(§5) Evaluation of herbicidal efficacy is carried out in the same manner as the above-mentioned Test Example 1.

Digitaria ciliaris [2] = test: Farming soil treatment test; assay type: in vivo; details: soil surface spray prior to weed growth, 30 days
Procedure: as §3, §4, §1, §5

Chenopodium album [3] = test: Farming soil treatment test; assay type: in vivo; details: soil surface spray prior to weed growth, 30 days
Procedure: as §3, §4, §1, §5

Amaranthus retroflexus [4] = test: Weed foliar treatment test; assay type: in vivo; details: foliar spray, 3 weeks
Procedure: (§6) Soil was filled into a 1/6000 are pot followed by seeding with Digitaria ciliaris, Chenopodium album and Amaranthus retroflexus, covering with soil, and cultivating in a glass greenhouse at an average atmospheric temperature of 25° C.
(§7) Wettable powder of Target Compound (I) shown in Table 1 prepared in compliance with the preparation examples were diluted with water to the prescribed amount of chemical and uniformly sprayed onto the weeds using 15 liters of sprayed water per are when Digitaria ciliaris had grown to the 1.0 to 2.0 leaf stage.
(§8) After treating for 3 weeks in a glass greenhouse at an average atmospheric temperature of 25° C., the herbicidal efficacy thereof was investigated.
(§9) Evaluation of herbicidal efficacy was carried out in the same manner as the above-mentioned Test Example 1.

Digitaria ciliaris [5] = test: Weed foliar treatment test; assay type: in vivo; details: foliar spray at 1.0 to 2.0 leaf stage of Digitaria ciliaris, 3 weeks
Procedure: as §6, §7, §8, §9

Chenopodium album [6] = test: Weed foliar treatment test; assay type: in vivo; details: foliar spray, 3 weeks
Procedure: as §6, §7, §8, §9

C=C(Cl)CNc1c(C#N)cnn1-c1nn2c(c1Cl)CCCC2 [Compound 2, 1-(3-chloro-4,5,6,7-tetrahydropyrazolo[1,5-a]pyridin-2-yl)-5-(2-chloroprop-2-enylamino)pyrazole-4-carbonitrile]
Rice plants phytotoxicity (growth inhibition level) (Rice plants; 1g a.i./10a): 0 (0 (exponent): 0% to less than 10% (growth inhibition rate)) | Rice plants phytotoxicity (growth inhibition level) (Rice plants; 5g a.i./10a): 0 (0 (exponent): 0% to less than 10% (growth inhibition rate)) | melting point: 123 to 124 °C | Scirpus juncoides herbicidal efficacy (growth inhibition level) (Scirpus juncoides; 1g a.i./10a): 7 (7: 70% to less than 80%) | Scirpus juncoides herbicidal efficacy (growth inhibition level) (Scirpus juncoides; 5g a.i./10a): 8 (8: 80% to less than 90%) | Monochoria vaginalis herbicidal efficacy (growth inhibition level) (Monochoria vaginalis; 1g a.i./10a): 9 (9: 90% to less than 100%) | Monochoria vaginalis herbicidal efficacy (growth inhibition level) (Monochoria vaginalis; 5g a.i./10a): 9 (9: 90% to less than 100%) | Echinochloa crus-galli herbicidal efficacy (growth inhibition level) (Echinochloa crus-galli; 1g a.i./10a): 9 (9: 90% to less than 100%) | Echinochloa crus-galli herbicidal efficacy (growth inhibition level) (Echinochloa crus-galli; 5g a.i./10a): 9 (9: 90% to less than 100%)

C=C(Cl)CN(C(=O)C(F)(F)F)c1c(C#N)cnn1-c1nn2c(c1Cl)CCCC2 [Compound 3, (N-1-(3-chloro-4,5,6,7-tetrahydropyrazolo[1,5-a]pyridin-2-yl)-4-cyanopyrazol-5-yl)-N-(2-chloroprop-2-enyl)-2,2,2-trifluoroacetamide]
Amaranthus retroflexus herbicidal efficacy (growth inhibition level) (Amaranthus retroflexus [1]; 5g a.i./10a): 10 (10: 100%) | Amaranthus retroflexus herbicidal efficacy (growth inhibition level) (Amaranthus retroflexus [1]; 10g a.i./10a): 10 (10: 100%) | Digitaria ciliaris herbicidal efficacy (growth inhibition level) (Digitaria ciliaris [2]; 5g a.i./10a): 10 (10: 100%) | Digitaria ciliaris herbicidal efficacy (growth inhibition level) (Digitaria ciliaris [2]; 10g a.i./10a): 10 (10: 100%) | Chenopodium album herbicidal efficacy (growth inhibition level) (Chenopodium album [3]; 5g a.i./10a): 10 (10: 100%) | Chenopodium album herbicidal efficacy (growth inhibition level) (Chenopodium album [3]; 10g a.i./10a): 10 (10: 100%) | Rice plants phytotoxicity (growth inhibition level) (Rice plants; 1g a.i./10a): 0 (0 (exponent): 0% to less than 10% (growth inhibition rate)) | Rice plants phytotoxicity (growth inhibition level) (Rice plants; 5g a.i./10a): 0 (0 (exponent): 0% to less than 10% (growth inhibition rate)) | Amaranthus retroflexus herbicidal efficacy (growth inhibition level) (Amaranthus retroflexus [4]; 5g a.i./10a): 10 (10: 100%) | Amaranthus retroflexus herbicidal efficacy (growth inhibition level) (Amaranthus retroflexus [4]; 10g a.i./10a): 10 (10: 100%) | Digitaria ciliaris herbicidal efficacy (growth inhibition level) (Digitaria ciliaris [5]; 5g a.i./10a): 10 (10: 100%) | Digitaria ciliaris herbicidal efficacy (growth inhibition level) (Digitaria ciliaris [5]; 10g a.i./10a): 10 (10: 100%) | Chenopodium album herbicidal efficacy (growth inhibition level) (Chenopodium album [6]; 5g a.i./10a): 10 (10: 100%) | Chenopodium album herbicidal efficacy (growth inhibition level) (Chenopodium album [6]; 10g a.i./10a): 10 (10: 100%) | Scirpus juncoides herbicidal efficacy (growth inhibition level) (Scirpus juncoides; 1g a.i./10a): 7 (7: 70% to less than 80%) | Scirpus juncoides herbicidal efficacy (growth inhibition level) (Scirpus juncoides; 5g a.i./10a): 8 (8: 80% to less than 90%) | Monochoria vaginalis herbicidal efficacy (growth inhibition level) (Monochoria vaginalis; 1g a.i./10a): 9 (9: 90% to less than 100%) | Monochoria vaginalis herbicidal efficacy (growth inhibition level) (Monochoria vaginalis; 5g a.i./10a): 9 (9: 90% to less than 100%) | Echinochloa crus-galli herbicidal efficacy (growth inhibition level) (Echinochloa crus-galli; 1g a.i./10a): 9 (9: 90% to less than 100%) | Echinochloa crus-galli herbicidal efficacy (growth inhibition level) (Echinochloa crus-galli; 5g a.i./10a): 10 (10: 100%)

C=C(C)CNc1c(C#N)cnn1-c1nn2c(c1Cl)CCCC2 [Compound 1, 1-(3-chloro-4,5,6,7-tetrahydropyrazolo[1,5-a]pyridin-2-yl)-5-(2-methylprop-2-enylamino)pyrazole-4-carbonitrile]
Rice plants phytotoxicity (growth inhibition level) (Rice plants; 1g a.i./10a): 0 (0 (exponent): 0% to less than 10% (growth inhibition rate)) | Rice plants phytotoxicity (growth inhibition level) (Rice plants; 5g a.i./10a): 0 (0 (exponent): 0% to less than 10% (growth inhibition rate)) | melting point: 97 to 98 °C | Scirpus juncoides herbicidal efficacy (growth inhibition level) (Scirpus juncoides; 1g a.i./10a): 7 (7: 70% to less than 80%) | Scirpus juncoides herbicidal efficacy (growth inhibition level) (Scirpus juncoides; 5g a.i./10a): 8 (8: 80% to less than 90%) | Monochoria vaginalis herbicidal efficacy (growth inhibition level) (Monochoria vaginalis; 1g a.i./10a): 9 (9: 90% to less than 100%) | Monochoria vaginalis herbicidal efficacy (growth inhibition level) (Monochoria vaginalis; 5g a.i./10a): 9 (9: 90% to less than 100%) | Echinochloa crus-galli herbicidal efficacy (growth inhibition level) (Echinochloa crus-galli; 1g a.i./10a): 8 (8: 80% to less than 90%) | Echinochloa crus-galli herbicidal efficacy (growth inhibition level) (Echinochloa crus-galli; 5g a.i./10a): 9 (9: 90% to less than 100%)

C=CCN(CC)c1c(C#N)cnn1-c1nn2c(c1Cl)CCCC2 [Control agent 4.75, reference compound]
Amaranthus retroflexus herbicidal efficacy (growth inhibition level) (Amaranthus retroflexus [1]; 5g a.i./10a): 6 (6: 60% to less than 70%) | Amaranthus retroflexus herbicidal efficacy (growth inhibition level) (Amaranthus retroflexus [1]; 10g a.i./10a): 6 (6: 60% to less than 70%) | Digitaria ciliaris herbicidal efficacy (growth inhibition level) (Digitaria ciliaris [2]; 5g a.i./10a): 3 (3: 30% to less than 40%) | Digitaria ciliaris herbicidal efficacy (growth inhibition level) (Digitaria ciliaris [2]; 10g a.i./10a): 4 (4: 40% to less than 50%) | Chenopodium album herbicidal efficacy (growth inhibition level) (Chenopodium album [3]; 5g a.i./10a): 5 (5: 50% to less than 60%) | Chenopodium album herbicidal efficacy (growth inhibition level) (Chenopodium album [3]; 10g a.i./10a): 6 (6: 60% to less than 70%) | Rice plants phytotoxicity (growth inhibition level) (Rice plants; 1g a.i./10a): 0 (0 (exponent): 0% to less than 10% (growth inhibition rate)) | Rice plants phytotoxicity (growth inhibition level) (Rice plants; 5g a.i./10a): 1 (1: 10% to less than 20%) | Amaranthus retroflexus herbicidal efficacy (growth inhibition level) (Amaranthus retroflexus [4]; 5g a.i./10a): 5 (5: 50% to less than 60%) | Amaranthus retroflexus herbicidal efficacy (growth inhibition level) (Amaranthus retroflexus [4]; 10g a.i./10a): 7 (7: 70% to less than 80%) | Digitaria ciliaris herbicidal efficacy (growth inhibition level) (Digitaria ciliaris [5]; 5g a.i./10a): 4 (4: 40% to less than 50%) | Digitaria ciliaris herbicidal efficacy (growth inhibition level) (Digitaria ciliaris [5]; 10g a.i./10a): 5 (5: 50% to less than 60%) | Chenopodium album herbicidal efficacy (growth inhibition level) (Chenopodium album [6]; 5g a.i./10a): 6 (6: 60% to less than 70%) | Chenopodium album herbicidal efficacy (growth inhibition level) (Chenopodium album [6]; 10g a.i./10a): 7 (7: 70% to less than 80%) | Scirpus juncoides herbicidal efficacy (growth inhibition level) (Scirpus juncoides; 1g a.i./10a): 2 (2: 20% to less than 30%) | Scirpus juncoides herbicidal efficacy (growth inhibition level) (Scirpus juncoides; 5g a.i./10a): 2 (2: 20% to less than 30%) | Monochoria vaginalis herbicidal efficacy (growth inhibition level) (Monochoria vaginalis; 1g a.i./10a): 4 (4: 40% to less than 50%) | Monochoria vaginalis herbicidal efficacy (growth inhibition level) (Monochoria vaginalis; 5g a.i./10a): 5 (5: 50% to less than 60%) | Echinochloa crus-galli herbicidal efficacy (growth inhibition level) (Echinochloa crus-galli; 1g a.i./10a): 3 (3: 30% to less than 40%) | Echinochloa crus-galli herbicidal efficacy (growth inhibition level) (Echinochloa crus-galli; 5g a.i./10a): 4 (4: 40% to less than 50%)
